Assay results as given in ChEMBL document CHEMBL1201862, “PubChem BioAssay data set” (2004).
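Cultured in 96-well plates, cells were exposed to test compound for 48 hours across five concentrations. GI50: concentration for 50% inhibition of growth.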 Calls of active or inactive are those of the source. Cut-off read from the data, not from the text of the source: active = GI50 up to about 1.1 µM and inactive = higher.

Assays:
Experiment in all cases: growth of human tumour cells (NCI), 48 h
MOLT-4 = tested on: MOLT-4
UO-31 = tested on: UO-31
SNB-19 = tested on: SNB-19
T47D = tested on: T47D
SF-295 = tested on: SF-295
UACC-257 = tested on: UACC-257
EKVX = tested on: EKVX
TK-10 = tested on: TK-10
ACHN = tested on: ACHN
CCRF-CEM = tested on: CCRF-CEM
CAKI-1 = tested on: CAKI-1
PC-3 = tested on: PC-3
M14 = tested on: M14
HCT-15 = tested on: HCT-15
U-251 = tested on: U-251
LOX IMVI = tested on: LOX IMVI
HT-29 = tested on: HT-29
SK-MEL-28 = tested on: SK-MEL-28

| SMILES | GI50 (MOLT-4) | GI50 (UO-31) | GI50 (SNB-19) | GI50 (T47D) | GI50 (SF-295) | GI50 (UACC-257) | GI50 (EKVX) | GI50 (TK-10) | GI50 (ACHN) | GI50 (CCRF-CEM) | GI50 (CAKI-1) | GI50 (PC-3) | GI50 (M14) | GI50 (HCT-15) | GI50 (U-251) | GI50 (LOX IMVI) | GI50 (HT-29) | GI50 (SK-MEL-28) |
| --- | --- | --- | --- | --- | --- | --- | --- | --- | --- | --- | --- | --- | --- | --- | --- | --- | --- | --- |
| CSc1ncc2c(n1)-c1ccccc1OC2N1CCCC1 (stereo not given) | 79.8 µM (inactive) | 42.4 µM (inactive) | > 100 µM (inactive) | 35.8 µM (inactive) | > 100 µM (inactive) | > 100 µM (inactive) | 42.1 µM (inactive) | 44.1 µM (inactive) | 60.8 µM (inactive) | 58.5 µM (inactive) | 31 µM (inactive) | 57.3 µM (inactive) | > 100 µM (inactive) | 49.9 µM | 68.5 µM (inactive) | > 100 µM (inactive) | > 100 µM (inactive) | – |
| CN1C(=O)NC(=O)/C(=C\Nc2ncccn2)C1=O | > 100 µM (inactive) | > 100 µM (inactive) | > 100 µM (inactive) | > 100 µM (inactive) | > 100 µM (inactive) | > 100 µM (inactive) | > 100 µM (inactive) | > 100 µM (inactive) | > 100 µM (inactive) | – | > 100 µM (inactive) | > 100 µM (inactive) | > 100 µM (inactive) | > 100 µM | > 100 µM (inactive) | > 100 µM (inactive) | > 100 µM (inactive) | > 100 µM (inactive) |
| CC1CN=C(Nc2cccc(F)c2)S1 (stereo not given) | – | > 100 µM (inactive) | > 100 µM (inactive) | > 100 µM (inactive) | > 100 µM (inactive) | > 100 µM (inactive) | > 100 µM (inactive) | > 100 µM (inactive) | > 100 µM (inactive) | 91 µM (inactive) | > 100 µM (inactive) | > 100 µM (inactive) | > 100 µM (inactive) | > 100 µM | > 100 µM (inactive) | > 100 µM (inactive) | > 100 µM (inactive) | > 100 µM (inactive) |
| COC(=O)/C(C#N)=C(\Nc1ccccc1)N1CCCCC1 | > 100 µM (inactive) | > 100 µM (inactive) | > 100 µM (inactive) | > 100 µM (inactive) | > 100 µM (inactive) | > 100 µM (inactive) | > 100 µM (inactive) | > 100 µM (inactive) | > 100 µM (inactive) | – | > 100 µM (inactive) | > 100 µM (inactive) | > 100 µM (inactive) | > 100 µM | > 100 µM (inactive) | > 100 µM (inactive) | > 100 µM (inactive) | > 100 µM (inactive) |
| Brc1c(C#CCC(c2ccccc2)(c2ccccc2)c2ccccc2)ccc(C#CCC(c2ccccc2)(c2ccccc2)c2ccccc2)c1Br | > 100 µM (inactive) | > 100 µM (inactive) | > 100 µM (inactive) | > 100 µM (inactive) | > 100 µM (inactive) | > 100 µM (inactive) | > 100 µM (inactive) | > 100 µM (inactive) | > 100 µM (inactive) | > 100 µM (inactive) | > 100 µM (inactive) | > 100 µM (inactive) | > 100 µM (inactive) | > 100 µM | > 100 µM (inactive) | – | > 100 µM (inactive) | > 100 µM (inactive) |
| CC1=C(C(=O)NC(C)(C)C)CC(C(=O)NC(C)(C)C)C(C)N1 (stereo not given) | > 100 µM (inactive) | > 100 µM (inactive) | 85.1 µM (inactive) | > 100 µM (inactive) | > 100 µM (inactive) | > 100 µM (inactive) | > 100 µM (inactive) | > 100 µM (inactive) | > 100 µM (inactive) | 61 µM (inactive) | > 100 µM (inactive) | > 100 µM (inactive) | > 100 µM (inactive) | > 100 µM | > 100 µM (inactive) | > 100 µM (inactive) | > 100 µM (inactive) | – |
| Clc1ccc(NCc2nnc(CCCCCCCCc3nnc(CNc4ccc(Cl)cc4)o3)o2)cc1 | > 100 µM (inactive) | > 100 µM (inactive) | > 100 µM (inactive) | > 100 µM (inactive) | > 100 µM (inactive) | > 100 µM (inactive) | > 100 µM (inactive) | > 100 µM (inactive) | > 100 µM (inactive) | > 100 µM (inactive) | > 100 µM (inactive) | > 100 µM (inactive) | > 100 µM (inactive) | > 100 µM | > 100 µM (inactive) | > 100 µM (inactive) | > 100 µM (inactive) | – |
| CCN(CC)CCN1C(=O)C(=O)N(c2cccc3ccccc23)C1=O | > 10 µM (inactive) | > 10 µM (inactive) | > 10 µM (inactive) | > 10 µM (inactive) | > 10 µM (inactive) | – | > 10 µM (inactive) | > 10 µM (inactive) | > 10 µM (inactive) | > 10 µM (inactive) | > 10 µM (inactive) | > 10 µM (inactive) | > 10 µM (inactive) | > 10 µM | > 10 µM (inactive) | > 10 µM (inactive) | > 10 µM (inactive) | > 10 µM (inactive) |
| O=C1/C(=C/c2ccco2)N=C(c2ccccc2)N1c1cc2cc(Sc3ccccc3)ccc2[nH]1 | 22.4 µM (inactive) | 18.8 µM (inactive) | > 25 µM (inactive) | 15.8 µM (inactive) | – | – | 15.5 µM (inactive) | – | > 25 µM (inactive) | 2.72 µM (inactive) | 9.46 µM (inactive) | > 25 µM (inactive) | 21.6 µM (inactive) | > 25 µM | – | 12.3 µM (inactive) | 20 µM (inactive) | > 25 µM (inactive) |
